# Earlier results, collected in PubChem BioAssay AID1259409 (Chemical Carcinogenesis Research Information System (CCRIS), 2018).
# System: rodent chemically induced tumor inhibition, incidence and multiplicity
# Assay: CCRIS tumor inhibitor studies
# Conditions: for tumour outcome (control, treated, inhibition, significance): Promoter: NONE USED
smiles,measurement,setting,value
O=[Se](O)O,"tumour outcome (control, treated, inhibition, significance)","Carcinogen: N,N-DIETHYLNITROSAMINE, 55-18-5, Dose [Inhibitor]: 0.1 MG 5/WK STARTING 10-15 D BEFORE CARCINOGEN TREATMENT AND CONTINUING FOR DURATION OF STUDY (STUDY DURATION: 26 WK), Route [Inhibitor]: INTRAPERITONEAL, Species: RAT, Strain/Sex: BDIV AND WISTAR/MALE, Target Tissue: Type of Lesion: LIVER: TUMOR, Dose [Carcinogen]: 100 MG/L IN DRINKING WATER DAILY FOR 5 MO","18/19 (95%), 14/17 (82%), 14%, not calculated"
same,"tumour outcome (control, treated, inhibition, significance)","Carcinogen: N,N-DIETHYLNITROSAMINE, 55-18-5, Dose [Inhibitor]: 1 MG/L IN DRINKING WATER DAILY STARTING 10-15 D BEFORE CARCINOGEN TREATMENT AND CONTINUING FOR DURATION OF STUDY (STUDY, Route [Inhibitor]: ORAL, Species: RAT, Strain/Sex: BDIV AND WISTAR/MALE, Target Tissue: Type of Lesion: LIVER: TUMOR, Dose [Carcinogen]: 80 MG/KG BW IN 0.2 ML 0.9% SALINE 1/WK FOR 10 WK","17/20 (85%), 15/20 (75%), 12%, not calculated"
same,"tumour outcome (control, treated, inhibition, significance)","Carcinogen: N,N-DIETHYLNITROSAMINE, 55-18-5, Dose [Inhibitor]: 5 MG/L IN DRINKING WATER DAILY STARTING 10-15 D BEFORE CARCINOGEN TREATMENT AND CONTINUING FOR DURATION OF STUDY (STUDY, Route [Inhibitor]: ORAL, Species: RAT, Strain/Sex: BDIV AND WISTAR/MALE, Target Tissue: Type of Lesion: LIVER: TUMOR, Dose [Carcinogen]: 80 MG/KG BW IN 0.2 ML 0.9% SALINE 1/WK FOR 10 WK","15/16 (94%), 17/18 (94%), 0%, not calculated"
same,"tumour outcome (control, treated, inhibition, significance)","Carcinogen: N,N-DIETHYLNITROSAMINE, 55-18-5, Dose [Inhibitor]: 10 MG/L IN DRINKING WATER DAILY STARTING 10-15 D BEFORE CARCINOGEN TREATMENT AND CONTINUING FOR DURATION OF STUDY (STUDY, Route [Inhibitor]: ORAL, Species: RAT, Strain/Sex: BDIV AND WISTAR/MALE, Target Tissue: Type of Lesion: LIVER: TUMOR, Dose [Carcinogen]: 80 MG/KG BW IN 0.2 ML 0.9% SALINE 1/WK FOR 10 WK","15/16 (94%), 9/13 (69%), 27%, not calculated"
same,"tumour outcome (control, treated, inhibition, significance)","Carcinogen: N,N-DIETHYLNITROSAMINE, 55-18-5, Dose [Inhibitor]: 10 MG/L IN DRINKING WATER DAILY STARTING 10-15 D BEFORE CARCINOGEN TREATMENT AND CONTINUING FOR DURATION OF STUDY (STUDY, Route [Inhibitor]: ORAL, Species: RAT, Strain/Sex: BDIV AND WISTAR/MALE, Target Tissue: Type of Lesion: LIVER: TUMOR, Dose [Carcinogen]: 100 MG/L IN DRINKING WATER DAILY FOR 5 MO","18/19 (95%), 15/16 (94%), 1%, not calculated"
same,"tumour outcome (control, treated, inhibition, significance)","Carcinogen: N-METHYL-N'-NITRO-N-NITROSOGUANIDINE, 70-25-7, Dose [Inhibitor]: 10 MG/L IN DRINKING WATER DAILY STARTING 15 D BEFORE CARCINOGEN TREATMENT AND CONTINUING FOR DURATION OF STUDY (STUDY DU, Route [Inhibitor]: ORAL, Species: RAT, Strain/Sex: BDIV AND WISTAR/MALE, Target Tissue: Type of Lesion: STOMACH: TUMORS, Dose [Carcinogen]: 250 MG/KG BW PULSED DOSE IN 2 ML CORN OIL ONCE","18/25 (72%), 12/35 (75%), -4%, not calculated"
same,outcome,"Carcinogen: N-METHYL-N-NITRO-N'-NITROSO-GUANIDINE [70-25-7], Dose [Inhibitor]: 0, 2, 4 MG/L FOR 1 WK PRIOR TO CARCINOGEN (STUDY DURATION: 43 WKS), Dose [Inhibitor]: 0, 2, 4 MG/L FOR 1 WK PRIOR TO CARCINOGEN (STUDY DURATION: 43 WKS), Route [Inhibitor]: DRINKING WATER, Species: RAT, Strain/Sex: WISTAR/MALE, Target Tissue: Type of Lesion: LEIOMYOMA, Dose [Carcinogen]: 20 MG/KG BW DAILY FOR 10 D","23%; 47%, -104%; 43%, -87%"
same,"tumour outcome (control, treated, inhibition, significance)","Carcinogen: N-METHYL-N-NITROSOUREA, 684-9-35, Dose [Inhibitor]: 4 PPM IN DRINKING WATER DAILY FOR 10 MO STARTING SIMULTANEOUSLY WITH CARCINOGEN TREATMENT (STUDY DURATION: 10 MO), Route [Inhibitor]: ORAL, Species: RAT, Strain/Sex: WE/MALE, Target Tissue: Type of Lesion: BRAIN AND SPINAL CORD: NEOPLASM, Dose [Carcinogen]: 20 MG/KG BW ONCE EVERY 4 WK FOR 40 WK","6/15 (40%), 9/16 (56%), -40%, not significant"
same,"tumour outcome (control, treated, inhibition, significance)","Carcinogen: N-METHYL-N-NITROSOUREA, 684-9-35, Dose [Inhibitor]: 4 PPM IN DRINKING WATER DAILY FOR 10 MO STARTING SIMULTANEOUSLY WITH CARCINOGEN TREATMENT (STUDY DURATION: 10 MO), Route [Inhibitor]: ORAL, Species: RAT, Strain/Sex: WE/MALE, Target Tissue: Type of Lesion: FORESTOMACH: NEOPLASM, Dose [Carcinogen]: 20 MG/KG BW ONCE EVERY 4 WK FOR 40 WK","14/15 (93%), 16/16 (100%), -8%, not significant"
same,"tumour outcome (control, treated, inhibition, significance)","Carcinogen: N-METHYL-N-NITROSOUREA, 684-9-35, Dose [Inhibitor]: 4 PPM IN DRINKING WATER DAILY FOR 10 MO STARTING SIMULTANEOUSLY WITH CARCINOGEN TREATMENT (STUDY DURATION: 10 MO), Route [Inhibitor]: ORAL, Species: RAT, Strain/Sex: WE/MALE, Target Tissue: Type of Lesion: MAMMARY GLAND: NEOPLASM, Dose [Carcinogen]: 20 MG/KG BW ONCE EVERY 4 WK FOR 40 WK","3/15 (20%), 4/16 (25%), -25%, not significant"
same,"tumour outcome (control, treated, inhibition, significance)","Carcinogen: N-METHYL-N-NITROSOUREA, 684-9-35, Dose [Inhibitor]: 4 PPM IN DRINKING WATER DAILY FOR 10 MO STARTING SIMULTANEOUSLY WITH CARCINOGEN TREATMENT (STUDY DURATION: 10 MO), Route [Inhibitor]: ORAL, Species: RAT, Strain/Sex: WE/MALE, Target Tissue: Type of Lesion: PERIPHERAL NERVES: NEOPLASM, Dose [Carcinogen]: 20 MG/KG BW ONCE EVERY 4 WK FOR 40 WK","3/15 (20%), 8/16 (50%), -150%, not significant"
same,"tumour outcome (control, treated, inhibition, significance)","Carcinogen: N-METHYL-N-NITROSOUREA, 684-93-5, Dose [Inhibitor]: 1 MG IN DIET DAILY STARTING AT AGE 5 WK 2 WK PRIOR TO FIRST CARCINOGEN TREATMENT AND CONTINUING FOR DURATION OF STUDY (S, Route [Inhibitor]: ORAL, Species: HAMSTER, Strain/Sex: SYRIAN/MALE, Target Tissue: Type of Lesion: TRACHEA: CARCINOMA, Dose [Carcinogen]: 0.5% SOLUTION (PH 5) 1/WK FOR 12 WK","9/34 (26%), 8/33 (24%), 8%, not significant"
same,"tumour outcome (control, treated, inhibition, significance)","Carcinogen: N-METHYL-N-NITROSOUREA, 684-93-5, Dose [Inhibitor]: 1 MG IN DIET DAILY STARTING AT AGE 5 WK 2 WK PRIOR TO FIRST CARCINOGEN TREATMENT AND CONTINUING FOR DURATION OF STUDY (S, Route [Inhibitor]: ORAL, Species: HAMSTER, Strain/Sex: SYRIAN/MALE, Target Tissue: Type of Lesion: TRACHEA: NEOPLASM, Dose [Carcinogen]: 0.5% SOLUTION (PH 5) 1/WK FOR 12 WK","11/34 (32%), 9/33 (27%), 16%, not significant"
same,"tumour outcome (control, treated, inhibition, significance)","Carcinogen: N-METHYL-N-NITROSOUREA, 684-93-5, Dose [Inhibitor]: 1 MG/KG IN DIET DAILY STARTING 7 D AFTER CARCINOGEN TREATMENT AND CONTINUING FORDURATION OF STUDY (STUDY DURATION: 120 D, Route [Inhibitor]: ORAL, Species: RAT, Strain/Sex: SPRAGUE-DAWLEY/FEMALE, Target Tissue: Type of Lesion: MAMMARY GLAND: ADENOCARCINOMA, Dose [Carcinogen]: 35 MG/KG BW IN 0.9% SALINE ONCE AT 50 D OF AGE","68%, 68%, 0%, not calculated"
same,"tumour outcome (control, treated, inhibition, significance)","Carcinogen: N-METHYL-N-NITROSOUREA, 684-93-5, Dose [Inhibitor]: 5 MG IN DIET DAILY STARTING AT AGE 5 WK 2 WK PRIOR TO FIRST CARCINOGEN TREATMENT AND CONTINUING FOR DURATION OF STUDY (S, Route [Inhibitor]: ORAL, Species: HAMSTER, Strain/Sex: SYRIAN/MALE, Target Tissue: Type of Lesion: TRACHEA: CARCINOMA, Dose [Carcinogen]: 0.5% SOLUTION (PH 5) 1/WK FOR 12 WK","9/34 (26%), 10/31 (32%), -23%, not significant"
